Experimental data reported in ChEMBL document CHEMBL1201862, “PubChem BioAssay data set” (2004).
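Values below derive from 48-hour exposures of cells grown in 96-well plates, with endpoints linearly interpolated between the two concentrations bracketing the appropriate inhibition level. GI50 marks 50% less growth.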 Activity calls are given as the source filed them. Rule as the data show it: active = GI50 up to about 1.1 µM and inactive = higher.

Experiments:
Assay in all cases: inhibition of tumour cell growth, NCI panel, 48 h
NCI-H226 = test system: NCI-H226
UACC-257 = test system: UACC-257
HOP-92 = test system: HOP-92
SF-268 = test system: SF-268
NCI-H23 = test system: NCI-H23
SK-MEL-5 = test system: SK-MEL-5
KM12 = test system: KM12
OVCAR-5 = test system: OVCAR-5
TK-10 = test system: TK-10
SK-OV-3 = test system: SK-OV-3
HCT-15 = test system: HCT-15
HCT-116 = test system: HCT-116
HOP-62 = test system: HOP-62
Malme-3M = test system: Malme-3M
NCI-H522 = test system: NCI-H522
A549 = test system: A549
SN12C = test system: SN12C
OVCAR-3 = test system: OVCAR-3
HT-29 = test system: HT-29
NCI/ADR-RES = test system: NCI/ADR-RES

SMILES	GI50 (NCI-H226)	GI50 (UACC-257)	GI50 (HOP-92)	GI50 (SF-268)	GI50 (NCI-H23)	GI50 (SK-MEL-5)	GI50 (KM12)	GI50 (OVCAR-5)	GI50 (TK-10)	GI50 (SK-OV-3)	GI50 (HCT-15)	GI50 (HCT-116)	GI50 (HOP-62)	GI50 (Malme-3M)	GI50 (NCI-H522)	GI50 (A549)	GI50 (SN12C)	GI50 (OVCAR-3)	GI50 (HT-29)	GI50 (NCI/ADR-RES)
Cc1cccc(C)c1NC(=O)C(=O)C1C(=O)NC(=O)NC1=O	> 100 µM (inactive)	> 100 µM (inactive)	> 100 µM (inactive)	> 100 µM (inactive)	> 100 µM (inactive)	> 100 µM (inactive)	> 100 µM (inactive)	> 100 µM (inactive)	> 100 µM (inactive)	> 100 µM (inactive)	> 100 µM	> 100 µM (inactive)	> 100 µM (inactive)	> 100 µM (inactive)	> 100 µM (inactive)	> 100 µM (inactive)	> 100 µM (inactive)	> 100 µM (inactive)	> 100 µM (inactive)	–
COC(=O)C(CC=O)C(=O)C(=O)Nc1cccc(C(F)(F)F)c1 (configuration not stated)	> 100 µM (inactive)	> 100 µM (inactive)	> 100 µM (inactive)	> 100 µM (inactive)	> 100 µM (inactive)	> 100 µM (inactive)	> 100 µM (inactive)	> 100 µM (inactive)	> 100 µM (inactive)	> 100 µM (inactive)	> 100 µM	> 100 µM (inactive)	> 100 µM (inactive)	> 100 µM (inactive)	> 100 µM (inactive)	> 100 µM (inactive)	> 100 µM (inactive)	> 100 µM (inactive)	> 100 µM (inactive)	–
C[n+]1c2ccccc2c(CNc2ccc(S(=O)(=O)N=C(N)N)cc2)c2ccccc21	1.6 µM (inactive)	16 µM (inactive)	5.24 µM (inactive)	7.06 µM (inactive)	5.31 µM (inactive)	6.92 µM (inactive)	13.2 µM (inactive)	43.7 µM (inactive)	29.4 µM (inactive)	46 µM (inactive)	10.2 µM	5.78 µM (inactive)	4.09 µM (inactive)	13.6 µM (inactive)	9.77 µM (inactive)	6.17 µM (inactive)	3.16 µM (inactive)	19.8 µM (inactive)	20.2 µM (inactive)	–
CC(C)=CC(=O)O[C@@H]1CC(C)(C)CC2C3=CCC4[C@]56CC[C@](O)(OC5)C(C)(C)C6CC[C@@]4(C)C3(C)CC[C@]21C(=O)O (some centres not stated)	34.2 µM (inactive)	> 100 µM (inactive)	–	74.1 µM (inactive)	26.1 µM (inactive)	> 100 µM (inactive)	33 µM (inactive)	> 100 µM (inactive)	63.1 µM (inactive)	> 100 µM (inactive)	31.4 µM	38 µM (inactive)	64.3 µM (inactive)	> 100 µM (inactive)	51.6 µM (inactive)	33.7 µM (inactive)	53.2 µM (inactive)	31.3 µM (inactive)	38.4 µM (inactive)	47.6 µM (inactive)
COc1cc(/C=C(\C#N)C(=O)c2ccccc2)cc(OC)c1OC	> 100 µM (inactive)	> 100 µM (inactive)	83.4 µM (inactive)	> 100 µM (inactive)	> 100 µM (inactive)	> 100 µM (inactive)	> 100 µM (inactive)	> 100 µM (inactive)	> 100 µM (inactive)	> 100 µM (inactive)	> 100 µM	> 100 µM (inactive)	> 100 µM (inactive)	> 100 µM (inactive)	> 100 µM (inactive)	> 100 µM (inactive)	> 100 µM (inactive)	> 100 µM (inactive)	> 100 µM (inactive)	–
COC(=O)CN1C(=O)C2(C(=O)OC)OC1(c1ccc([N+](=O)[O-])cc1)C1C(=O)N(c3ccccc3)C(=O)C12 (configuration not stated)	> 100 µM (inactive)	> 100 µM (inactive)	–	> 100 µM (inactive)	> 100 µM (inactive)	> 100 µM (inactive)	> 100 µM (inactive)	> 100 µM (inactive)	> 100 µM (inactive)	> 100 µM (inactive)	> 100 µM	> 100 µM (inactive)	> 100 µM (inactive)	> 100 µM (inactive)	> 100 µM (inactive)	> 100 µM (inactive)	> 100 µM (inactive)	–	> 100 µM (inactive)	> 100 µM (inactive)
CN1OC2OC(=O)OC2[C@H]1[C@H]1O[C@H](c2ccccc2)OC1(C)c1cc(OC(=O)c2ccccc2)ccc1OC(=O)c1ccccc1 (some centres not stated)	> 50 µM (inactive)	> 50 µM (inactive)	> 50 µM (inactive)	> 50 µM (inactive)	> 50 µM (inactive)	> 50 µM (inactive)	> 50 µM (inactive)	> 50 µM (inactive)	> 50 µM (inactive)	> 50 µM (inactive)	> 50 µM	> 50 µM (inactive)	> 50 µM (inactive)	> 50 µM (inactive)	> 50 µM (inactive)	> 50 µM (inactive)	> 50 µM (inactive)	> 50 µM (inactive)	> 50 µM (inactive)	–
